# Reference: patent US12257260B2, “Pharmaceutical use of anemoside B4 against acute gouty arthritis” (priority 2018, dated 2025)
# Columns and labels:
# [1] = tested on: rats with acute gouty arthritis induced by MSU; experiment: Example 1: effect of anemoside B4 on sodium urate (MSU)-induced acute gouty arthritis in rats, joint swelling; format: in vivo, SD rats; design: key to Swelling degree 2 h after modelling / Swelling degree 6 h after modelling / Swelling degree 8 h after modelling / Swelling degree 12 h after modelling / Swelling degree 24 h after modelling: swelling = joint volume after modeling − joint volume before modeling
# Protocol: 2.1 Preparation of sodium urate (MSU) crystals and suspension: 5 ml of 1 mol/L NaOH solution and 800 mg sodium urate were added to 155 ml depyrogenated sterile water for injection and heated to boiling. Sodium urate was completely dissolved and then cooled down naturally under stirring. After that, 1 mol/L HCl was dropped to pH 7.0, then the solution became milky white, and was immediately centrifuged at 3000 r/min for 2 min. The crystals were collected, dried in an oven at 60° C., placed in an EP tube, and stored at 4° C. Prior to use, MSU crystals were autoclaved at 121° C. for 30 min, and dispersed in PBS to make the required concentration, i.e. to obtain a suspension of sodium urate (MSU). The film preparation of the suspension was performed, and the long fusiform crystals can be seen under the optical microscope.
# 2.2 Grouping, administration, and model establishment: 60 rats were randomly divided into 6 groups according to their body weights, 10 rats for each group: (1) model group; (2) colchicine group (0.3 mg/kg); (3) B4 subcutaneous injection group (5 mg/kg*2); (4) B4 intravenous injection group (5 mg/kg*2); (5) B4 intramuscular injection high-dose group (5 mg/kg*2); (6) B4 intramuscular injection low-dose group (2.5 mg/kg*2); normal group (5 rats). The normal group and the model group were injected with the same volume of normal saline, and each of B4 groups was given corresponding drugs by the corresponding route of administration for 3 days, twice a day, with an interval of 4 hours between two times.
# Modeling method: on the day of modeling, the model was initially established 1 h after administrating in the drug groups. Among them: • (1) Model group: each rat was injected with 40 mg/mL MSU suspension to the back of the right ankle joint at a dose of 0.2 mL/rat; • (2) Colchicine group: the colchicine group was administered once on the day of modeling, and 1 h after administration, each rat was injected with 40 mg/mL MSU suspension on the dorsal side of the right ankle joint at a dose of 0.2 mL/mouse; • (3)-(6) B4 groups: 1 h after the last administration, each rat was injected with 40 mg/mL MSU suspension on the dorsal side of the right ankle joint at 0.2 mL/mouse, and 3 h after modeling, each test group was further administrated once.
# 2.3 Measurement of joint swelling: before modeling and 2 h, 4 h, 6 h, 8 h, 12 h, 24 h after modeling, the volume of the right ankle joint was measured, and the swelling degree was calculated by “joint volume after modeling-joint volume before modeling”.
# [2] = tested on: rats with acute gouty arthritis induced by MSU; experiment: Example 2: further investigation at reduced dose, sodium urate (MSU)-induced acute gouty arthritis in rats, joint swelling; format: in vivo, SD rats; design: key to Swelling degree 2 h after modelling / Swelling degree 4 h after modelling / Swelling degree 6 h after modelling: joint volume after modeling minus joint volume before modeling
# From the text: Based on Example 1, the dosage of anemoside B4 was reduced, and the effect on alleviating the joint swelling of acute gouty arthritis caused by sodium urate in rats was further investigated. • 1. Experimental materials: same as item “1.” in example 1. • 2. Experimental method • 2.1 Preparation of sodium urate (MSU) crystals and suspension: same as item “2.1” in Example 1. • 2.2. Grouping, administration, and model establishment: • 2.2.1 Grouping: 50 rats were randomly divided into 5 groups according to their body weights, 10 rats for each group: • (1) model group; (2) colchicine group (0.15 mg/kg); (3) B4 subcutaneous injection group (2.5 mg/kg*2); (4) B4 intramuscular injection group (2.5 mg/kg*2); (5) B4 intravenous injection group (2.5 mg/kg*2). • 2.2.2 Administration: The model group was injected with the same volume of normal saline, and each test group (including B4 groups and colchicine group) was administered only on the day of model building. Among them, colchicine group was administered once, while each B4 group was successively administered two times with an interval of 4 h. • 2.2.3 Model establishment and measurement of joint swelling: the model was initially established 1 h after administrating in the drug groups, and the method was same as that in example 1. Before modeling and 2 h, 4 h, 6 h, 8 h, and 12 h after modeling, the volume of the right ankle joint was measured, and the swelling degree was calculated by “joint volume after modeling joint volume before modeling”. • 3.
# [3] = B4 intramuscular high-dose group, 5 mg/kg * 2
# [4] = B4 intramuscular low-dose group, 2.5 mg/kg * 2
# [5] = B4 intravenous injection group, 5 mg/kg * 2
# [6] = B4 subcutaneous injection group, 5 mg/kg * 2
# [7] = B4 intramuscular injection group, 2.5mg/kg * twice
# [8] = B4 intravenous injection group, 2.5mg/kg * twice
# [9] = B4 subcutaneous injection group, 2.5 mg/kg * twice
smiles,measurement,setting,value
"C=C(C)C1CCC2(C(=O)O[C@@H]3O[C@H](CO[C@@H]4O[C@H](CO)[C@@H](O[C@@H]5O[C@@H](C)[C@H](O)[C@@H](O)[C@H]5O)[C@H](O)[C@H]4O)[C@@H](O)[C@H](O)[C@H]3O)CC[C@]3(C)[C@H](CC[C@@H]4[C@@]5(C)CC[C@H](OC6OC[C@H](O)[C@H](O)[C@H]6O[C@@H]6O[C@@H](C)[C@H](O)[C@@H](O)[C@H]6O)[C@@](C)(CO)[C@@H]5CC[C@]43C)[C@@H]12 (stereo partly shown) [B4, anemoside B4]",Swelling degree 2 h after modelling,[1]; [3],0.15 ± 0.10
same,Swelling degree 4 h after modelling,[1]; [3],0.15 ± 0.09^Δ
same,Swelling degree 6 h after modelling,[1]; [3],0.19 ± 0.11
same,Swelling degree 8 h after modelling,[1]; [3],0.28 ± 0.11
same,Swelling degree 12 h after modelling,[1]; [3],0.33 ± 0.16
same,Swelling degree 24 h after modelling,[1]; [3],0.35 ± 0.23
same,swelling degree of the joints compared with the model group,"[1]; B4 intramuscular injection group, 2-4 h after modelling",significantly reduced
same,Swelling degree 2 h after modelling,[1]; [4],0.12 ± 0.07^Δ
same,Swelling degree 4 h after modelling,[1]; [4],0.11 ± 0.11^Δ
same,Swelling degree 6 h after modelling,[1]; [4],0.20 ± 0.11
same,Swelling degree 8 h after modelling,[1]; [4],0.32 ± 0.18
same,Swelling degree 12 h after modelling,[1]; [4],0.38 ± 0.23
same,Swelling degree 24 h after modelling,[1]; [4],0.55 ± 0.35
same,Swelling degree 4 h after modelling,[1]; [5],0.08 ± 0.18^Δ
same,Swelling degree 6 h after modelling,[1]; [5],0.13 ± 0.14^Δ
same,Swelling degree 8 h after modelling,[1]; [5],0.23 ± 0.21
same,Swelling degree 12 h after modelling,[1]; [5],0.22 ± 0.19
same,Swelling degree 24 h after modelling,[1]; [5],0.28 ± 0.21
same,Swelling degree 2 h after modelling,"[1]; B4 intravenous injection group, 5 mg/kg * 2, 3 days, right ankle joint volume after minus before modelling",0.17 ± 0.14
same,swelling degree of the joints compared with the model group,"[1]; B4 intravenous injection group, 4-6 h after modelling",significantly reduced
same,Swelling degree 2 h after modelling,[1]; [6],0.10 ± 0.08^Δ
same,Swelling degree 4 h after modelling,[1]; [6],0.07 ± 0.08^ΔΔ
same,Swelling degree 6 h after modelling,[1]; [6],0.13 ± 0.09^Δ
same,Swelling degree 8 h after modelling,[1]; [6],0.21 ± 0.13
same,Swelling degree 12 h after modelling,[1]; [6],0.27 ± 0.15
same,Swelling degree 24 h after modelling,[1]; [6],0.28 ± 0.16
same,swelling degree of the joints compared with the model group,"[1]; B4 subcutaneous injection group, 2-6 h after modelling",significantly reduced
same,"effect on reducing the acute joint swelling caused by sodium urate (MSU) crystals, compared with colchicine",[1]; administration routes and dosages of Example 1,equivalent to that of colchicine
same,joint swelling of acute gouty arthritis (conclusion),"[1]; subcutaneous, intramuscular and intravenous injection",significantly alleviate
same,alleviating the joint swelling of acute gouty arthritis (conclusion),"[2]; B4 injection, Example 2",significant effect
same,Swelling degree 2 h after modelling,[2]; [7],0.099 ± 0.08
same,Swelling degree 4 h after modelling,[2]; [7],0.130 ± 0.07
same,Swelling degree 6 h after modelling,[2]; [7],0.090 ± 0.07
same,Swelling degree 8 h after modelling,[2]; [7],0.134 ± 0.10^Δ
same,Swelling degree 12 h after modelling,[2]; [7],0.097 ± 0.17^Δ
same,swelling degree of the joint compared with the model group,"[2]; B4 intramuscular injection group, 8-12 h after modelling",obviously reduced and significantly different
same,"joint swelling degree, rank among groups","[2]; B4 intramuscular injection group, 12 h after modeling",smallest in all groups
same,Swelling degree 2 h after modelling,[2]; [8],0.113 ± 0.09
same,Swelling degree 4 h after modelling,[2]; [8],0.099 ± 0.10
same,Swelling degree 6 h after modelling,[2]; [8],0.108 ± 0.18
same,Swelling degree 8 h after modelling,[2]; [8],0.113 ± 0.24^Δ
same,Swelling degree 12 h after modelling,[2]; [8],0.124 ± 0.27^Δ
same,swelling degree of the joint compared with the model group,"[2]; B4 intravenous injection group, 8-12 h after modelling",obviously reduced and significantly different
same,Swelling degree 4 h after modelling,[2]; [9],0.008 ± 0.11
same,Swelling degree 6 h after modelling,[2]; [9],0.040 ± 0.09^Δ
same,Swelling degree 8 h after modelling,[2]; [9],0.103 ± 0.18^Δ
same,Swelling degree 12 h after modelling,[2]; [9],0.103 ± 0.16^Δ
same,Swelling degree 2 h after modelling,"[2]; B4 subcutaneous injection group, 2.5 mg/kg * twice, day of modelling only",0.067 ± 0.10
same,"joint swelling degree, rank among groups","[2]; B4 subcutaneous injection group, 2-8 h after modeling",smallest in all groups
same,swelling degree of the joint compared with the model group,"[2]; B4 subcutaneous injection group, 6-12 h after modelling",obviously reduced and significantly different
same,"effect on reducing the joint swelling of acute gouty arthritis caused by sodium urate, compared with colchicine",[2]; administration routes and dosages of Example 2,equivalent to that of colchicine
"COc1cc2c(c(OC)c1OC)-c1ccc(OC)c(=O)cc1[C@@H](NC(C)=O)CC2 [Colchicine, colchicine, reference compound]",Swelling degree 4 h after modelling,"[1]; Colchicine group, 0.3 mg/kg",0.13 ± 0.11^Δ
same,Swelling degree 6 h after modelling,"[1]; Colchicine group, 0.3 mg/kg",0.19 ± 0.14
same,Swelling degree 8 h after modelling,"[1]; Colchicine group, 0.3 mg/kg",0.25 ± 0.20
same,Swelling degree 12 h after modelling,"[1]; Colchicine group, 0.3 mg/kg",0.35 ± 0.23
same,Swelling degree 24 h after modelling,"[1]; Colchicine group, 0.3 mg/kg",0.33 ± 0.11
same,Swelling degree 2 h after modelling,"[1]; Colchicine group, 0.3 mg/kg, once on the day of modeling",0.14 ± 0.08
same,swelling degree of the joints compared with the model group,"[1]; colchicine group, 4 h after modelling",significantly reduced
same,Swelling degree 4 h after modelling,"[2]; Colchicine group, 0.15 mg/kg",0.082 ± 0.11
same,Swelling degree 6 h after modelling,"[2]; Colchicine group, 0.15 mg/kg",0.056 ± 0.11^Δ
same,Swelling degree 8 h after modelling,"[2]; Colchicine group, 0.15 mg/kg",0.135 ± 0.13^Δ
same,Swelling degree 12 h after modelling,"[2]; Colchicine group, 0.15 mg/kg",0.128 ± 0.13^Δ
same,Swelling degree 2 h after modelling,"[2]; Colchicine group, 0.15 mg/kg, once on the day of model building",0.155 ± 0.07
same,swelling degree of the joint compared with the model group,"[2]; colchicine group, 6-12 h after modelling",obviously reduced and significantly different
